Among the test systems are SK-OV-3 ovarian; KM12 colon; HOP-62 NSCLC; COLO 205 colon; NCI-H522 lung; A549 NSCLC; IGROV1 ovarian; OVCAR-5 ovarian; HCT-116 colon; MOLT-4 leukemia.
What all share (assay): growth of human tumour cells (NCI), 48 h

Drawing on PubChem BioAssay (NCI), this text covers TGI and GI50 for 22 compounds.

The structures appear in SMILES notation. “And” between values parts separate entries of the source, which are not always exact repeats. Equal entries are not always repeated.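 48-hour exposure; five concentrations; linearly interpolated endpoints. GI50 is the concentration that inhibits growth by half. TGI denotes the concentration required for complete inhibition of growth.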

Regarding `OCCc1ccsc1-c1sc(-c2cc(CCO)c(-c3sc(-c4cc(CCO)c(-c5sccc5CCO)s4)cc3CCO)s2)cc1CCO`, the TGI in the assay on SK-OV-3 ovarian is 3.11 µM; in the assay with KM12 colon, 1.9 µM; in the assay with HOP-62 NSCLC, 2.76 µM; in the assay on COLO 205 colon it was 5.03 µM; in the assay with NCI-H522 lung, 2.36 µM; with A549 NSCLC it was 2.2 µM. Besides, the TGI in the assay with IGROV1 ovarian was found to be 2.6 µM; in the assay with OVCAR-5 ovarian, 2.85 µM; in the assay on HCT-116 colon, 2.33 µM.
As for `CC(=O)OC1CCn2c1nc1cc([N+](=O)[O-])c(C)cc12` (stereo unspecified), the TGI in the assay with SK-OV-3 ovarian, with KM12 colon, in the assay on COLO 205 colon, in the assay with NCI-H522 lung, in the assay with A549 NSCLC and in the assay with MOLT-4 leukemia was greater than 100 µM each time. The TGI in the assay on IGROV1 ovarian and in the assay with HCT-116 colon was greater than 100 µM each time.
`C[N+]1(C)CCCC(C#N)(c2ccccc2)CC1` (stereo unspecified): the TGI with SK-OV-3 ovarian, with KM12 colon, in the assay on HOP-62 NSCLC, in the assay on COLO 205 colon, with A549 NSCLC and in the assay on MOLT-4 leukemia was greater than 100 µM in each case. The TGI with IGROV1 ovarian, in the assay on OVCAR-5 ovarian and in the assay with HCT-116 colon was greater than 100 µM in each case.
In the case of `S=c1ncc(-c2cncc(-c3cnc(=S)[nH]c3)n2)c[nH]1`, the TGI with SK-OV-3 ovarian, in the assay on KM12 colon, with COLO 205 colon, in the assay on NCI-H522 lung, in the assay with A549 NSCLC and in the assay on MOLT-4 leukemia was greater than 100 µM each time. In addition, the TGI in the assay with IGROV1 ovarian, in the assay with OVCAR-5 ovarian and in the assay on HCT-116 colon was greater than 100 µM in each case.
With `C[C@]12CC[C@H]3[C@@H](CC=C4C[C@@H](O)CC[C@@]43C)[C@@H]1C/C(=C\c1cccnc1)[C@@H]2O`, the TGI with SK-OV-3 ovarian was 34.2 µM; with KM12 colon, greater than 100 µM; with HOP-62 NSCLC, 29.4 µM; with COLO 205 colon, greater than 100 µM; in the assay on NCI-H522 lung it was 42.5 µM; with A549 NSCLC it was greater than 100 µM. In addition, the TGI in the assay with IGROV1 ovarian, in the assay on OVCAR-5 ovarian and with HCT-116 colon was greater than 100 µM in each case.
Consider `CCOC(=O)C(O)(CC1=NC(C(=O)OC)(C(=O)OC)C(c2cccc(C=O)c2)O1)C(=O)OCC` (stereo unspecified), for which the TGI in the assay with SK-OV-3 ovarian, in the assay with KM12 colon, with HOP-62 NSCLC, in the assay on COLO 205 colon, with A549 NSCLC and in the assay with MOLT-4 leukemia was greater than 100 µM each time. The TGI in the assay with IGROV1 ovarian, with OVCAR-5 ovarian and in the assay on HCT-116 colon was greater than 100 µM each time.
With `CN(C)C(=O)C(F)(F)C(c1ccccc1)C1C(=O)N(C)C(=O)N(C)C1=O` (stereo unspecified), the TGI in the assay on SK-OV-3 ovarian, in the assay on KM12 colon, in the assay with HOP-62 NSCLC, in the assay with COLO 205 colon, in the assay on A549 NSCLC and in the assay on MOLT-4 leukemia was greater than 100 µM each time. In addition, the TGI in the assay with OVCAR-5 ovarian and with HCT-116 colon was greater than 100 µM each time.
For the compound `CC(C)c1cc(=O)[nH]c2cc(N)ccc12`, the TGI in the assay with KM12 colon, with HOP-62 NSCLC, in the assay with COLO 205 colon, with A549 NSCLC, in the assay with MOLT-4 leukemia and in the assay on IGROV1 ovarian was greater than 100 µM each time. Besides, the TGI with OVCAR-5 ovarian and with HCT-116 colon was greater than 100 µM each time.
On to `Cc1ccc(S(=O)(=O)OC[C@@]2(C)CC[C@]3(C)CC[C@]4(C)C(=C3C2)C=C[C@@H]2[C@@]3(C)CCCNC(C)(C)[C@@H]3CC[C@]24C)cc1`, for which the GI50 with SK-OV-3 ovarian is 1.79 µM; in the assay with KM12 colon, 1.86 µM; with NCI-H522 lung, 1.7 µM; in the assay on OVCAR-5 ovarian it was 1.77 µM. The TGI in the assay on SK-OV-3 ovarian came to 3.25 µM; in the assay on KM12 colon, 3.57 µM; with NCI-H522 lung it was 3.36 µM; in the assay on OVCAR-5 ovarian, 3.21 µM.
For the compound `CCCC(=O)Nc1cc(C(=O)N2C[C@H]3C[C@@]34C2=CC(=O)c2[nH]cc(C)c24)n(COC)c1`, the TGI is 5.36 µM with SK-OV-3 ovarian; 2.29 µM and 14.7 µM in the assay with KM12 colon; 1.14 µM and 0.261 µM with COLO 205 colon; 0.261 µM and 0.117 µM in the assay with NCI-H522 lung; 50 µM and 12.8 µM in the assay on A549 NSCLC; 50 µM in the assay with OVCAR-5 ovarian. Further, the TGI with HCT-116 colon was 7.27 µM. The GI50 is 0.282 µM with KM12 colon; 0.104 µM in the assay on HOP-62 NSCLC; 0.119 µM with COLO 205 colon; 0.0115 µM in the assay on NCI-H522 lung; 1.2 µM in the assay with A549 NSCLC.
For `CCOC(=O)Cc1c(C(=O)OCC)[n+](=O)c2cc(Cl)c(Cl)cc2n1[O-]`, the TGI is 11.9 µM in the assay with SK-OV-3 ovarian; 2.95 µM in the assay with KM12 colon; 4.27 µM in the assay on HOP-62 NSCLC; 3.27 µM with COLO 205 colon; 3.63 µM in the assay on NCI-H522 lung; 3.72 µM in the assay with A549 NSCLC. Besides, the figures for the TGI in the assay on IGROV1 ovarian, with OVCAR-5 ovarian and in the assay with HCT-116 colon were 2.35 µM, 5.24 µM and 7.27 µM, respectively.
`CCOC(=O)[C@@]12C[C@](/C=C/OC)(O[Si](C)(C)C)[C@@]13c1cc(OC)c(OC)cc1CCN3C(=O)C2=O`: the TGI in the assay on SK-OV-3 ovarian, in the assay with KM12 colon, in the assay on HOP-62 NSCLC, in the assay on COLO 205 colon, in the assay with A549 NSCLC and with MOLT-4 leukemia was greater than 100 µM throughout. Also, the TGI with IGROV1 ovarian, with OVCAR-5 ovarian and in the assay with HCT-116 colon was greater than 100 µM throughout.
For `CC1(C)N=C(C(N)=O)c2[nH]cnc2N1`, the TGI with SK-OV-3 ovarian, with KM12 colon, in the assay on HOP-62 NSCLC, in the assay on COLO 205 colon, with NCI-H522 lung and with A549 NSCLC was greater than 100 µM each time. In addition, the TGI with IGROV1 ovarian, in the assay on OVCAR-5 ovarian and with HCT-116 colon was greater than 100 µM throughout.
With `CN(C)C(=O)C(F)(F)C(c1ccccc1Br)C1C(=O)N(C)C(=O)N(C)C1=O` (stereo unspecified), the TGI with SK-OV-3 ovarian, in the assay on KM12 colon, in the assay on HOP-62 NSCLC, in the assay on COLO 205 colon, with A549 NSCLC and with OVCAR-5 ovarian was greater than 100 µM each time. Further, in the assay with HCT-116 colon, the TGI was greater than 100 µM.
Take `Cc1c(C#N)c2nnn(-c3cccc(Cl)c3)c(=O)n2c1-c1ccccc1`: the TGI in the assay on SK-OV-3 ovarian is greater than 100 µM; in the assay on KM12 colon it was 14.9 µM; with HOP-62 NSCLC it was 7.81 µM; with COLO 205 colon, 2.35 µM; with NCI-H522 lung, 8.59 µM; in the assay with A549 NSCLC it was greater than 100 µM. Further, the TGI with IGROV1 ovarian is greater than 100 µM; in the assay on OVCAR-5 ovarian it was greater than 100 µM; with HCT-116 colon, 38.2 µM.
With `O=C(/C=C/c1ccc(OCc2ccccc2)cc1)NCc1ccc(C(=O)NCCc2ccccc2)cc1`, the TGI with SK-OV-3 ovarian, with KM12 colon, in the assay with HOP-62 NSCLC, with COLO 205 colon, in the assay on NCI-H522 lung and with A549 NSCLC was greater than 100 µM in each case. In addition, the TGI in the assay on IGROV1 ovarian, with OVCAR-5 ovarian and in the assay with HCT-116 colon was greater than 100 µM throughout.
For `CCOC(=O)C(C)c1nc2cc(F)c(F)cc2[nH]c1=O` (stereo unspecified), the TGI with SK-OV-3 ovarian, in the assay on KM12 colon, with HOP-62 NSCLC, with COLO 205 colon, in the assay with A549 NSCLC and in the assay with MOLT-4 leukemia was greater than 100 µM throughout. Besides, the TGI in the assay with OVCAR-5 ovarian and in the assay on HCT-116 colon was greater than 100 µM each time.
As for `CCCCCCCCCCCC1N=C(N)N=C(N)N1c1cccc(Br)c1` (stereo unspecified), the GI50 is 1.92 µM in the assay with SK-OV-3 ovarian; 1.51 µM in the assay on NCI-H522 lung; 1.14 µM in the assay on IGROV1 ovarian; 0.811 µM in the assay with OVCAR-5 ovarian; 0.216 µM in the assay on HCT-116 colon. Further, the TGI came to 4.28 µM in the assay on SK-OV-3 ovarian; 2.95 µM with NCI-H522 lung; 2.58 µM in the assay with IGROV1 ovarian; 2.22 µM in the assay on OVCAR-5 ovarian; 1.5 µM with HCT-116 colon.
Take `Cc1ccc(S(=O)(=O)N/N=C2\C=CC3(CC2)C(=O)N(I)c2ccccc23)cc1` (stereo unspecified): the TGI with SK-OV-3 ovarian, in the assay on KM12 colon, in the assay with HOP-62 NSCLC, in the assay with COLO 205 colon, in the assay on A549 NSCLC and in the assay with MOLT-4 leukemia was greater than 100 µM in each case. In addition, the TGI with OVCAR-5 ovarian and in the assay on HCT-116 colon was greater than 100 µM throughout.
For `Cc1ccc(/C=c2\cc3oc(=O)c4cccc(c4-3)c2=O)cc1`, the TGI in the assay on SK-OV-3 ovarian, in the assay with HOP-62 NSCLC, in the assay on COLO 205 colon, in the assay with NCI-H522 lung, in the assay with IGROV1 ovarian and with OVCAR-5 ovarian was greater than 100 µM throughout. Besides, in the assay on HCT-116 colon, the TGI is greater than 100 µM.
For `S=C(NCc1ccccn1)N/N=C/c1ccccn1`, the TGI was 97.9 µM in the assay with SK-OV-3 ovarian; greater than 100 µM with KM12 colon; 0.379 µM in the assay with COLO 205 colon; 0.0713 µM in the assay with NCI-H522 lung; 1.46 µM in the assay on A549 NSCLC; less than 0.0357 µM in the assay with MOLT-4 leukemia. Besides, the results for the TGI in the assay on OVCAR-5 ovarian and in the assay on HCT-116 colon were greater than 100 µM and less than 0.01 µM, respectively.
As for `NC(=S)NNCC(=O)CC(O)(C(F)(F)F)C(F)(F)Cl` (stereo unspecified), the TGI with SK-OV-3 ovarian, in the assay with KM12 colon, in the assay on COLO 205 colon, in the assay with NCI-H522 lung, in the assay with A549 NSCLC and in the assay with MOLT-4 leukemia was greater than 100 µM each time. In addition, the TGI in the assay on IGROV1 ovarian, in the assay on OVCAR-5 ovarian and with HCT-116 colon was greater than 100 µM throughout.
